# Laboratory results from ChEMBL document CHEMBL3301555, “MMV Malaria Box screening in pLDH viability assay against Plasmodium falciparum gametocytes”.
# Test system: Plasmodium falciparum
# Test: MMV: Measure of pLDH activity as indication of parasite viability. Gametocytogenesis of 3D7 Plasmodium falciparum strain was induced in vitro and asexual parasites were depleted with N-acetylglucosamine. Gametocytes were treated with dihydroartemisinin, epoxomicin, methylene blue, primaquine, puromycin or chloroquine in 96-well plates and the pLDH activity was evaluated using a modified Makler protocol. Mosquito infectivity was measured by the standard membrane feeding assay. The IC50 value was extrapolated as the concentration that induced a 50% inhibition of gametocyte viability.
# Format: functional, organism-based
row,SMILES,IC50
1,Cc1cccc(-n2ncc3c(O)nc(-n4nc(C)cc4NC(=O)c4cc5ccccc5o4)nc32)c1,1620 nM
2,COc1ccccc1NC1=C(N2CCCCC2)C(=O)c2ccccc2C1=O,236 nM
3,O=C(NCCCN1CCC(N2CCCCC2)CC1)C1=Cc2cc(Br)ccc2OC1,1440 nM
4,Oc1c(C(Nc2ccccn2)c2cccc(Oc3ccccc3)c2)ccc2cccnc12 (stereo not drawn),3890 nM
5,Oc1c(CN2CCN(c3ccccc3F)CC2)cc(Br)c2cccnc12,1900 nM
6,Cc1sc2ncnc(Sc3nc4ccccc4[nH]3)c2c1C,2640 nM
7,CCCc1c(C)nc2ccc(Br)cc2c1O,8900 nM
8,CCOc1ccc(CN2CCN(CC(O)COc3ccc(OCC(O)CN4CCN(Cc5ccc(OCC)cc5)CC4)cc3)CC2)cc1 (stereo not drawn),1340 nM
9,COC(=O)c1ccc(C2C3=C(O)CC(c4ccc(F)cc4)CC3=Nc3ccccc3N2C(=O)c2ccccc2)cc1 (stereo not drawn),6520 nM
10,O=C(NC1CCN(Cc2ccccc2)CC1)c1cc(C(=O)NC2CCN(Cc3ccccc3)CC2)cc(C(=O)NC2CCN(Cc3ccccc3)CC2)c1,288 nM
11,CN(C)c1ccc(C(O)(c2ccc(N(C)C)cc2)c2ccc(N(C)C)cc2)cc1 [METHYLROSANILINE],158 nM
12,Cc1ccc2cc3c(N)c4c(C)ccc(C)c4nc3nc2c1,2720 nM
13,CCN(CC)CCn1c(=N)n(CC(O)c2ccc(Cl)c(Cl)c2)c2ccccc21.Cl (stereo not drawn),2080 nM
14,CN1CCN(c2ccc(Nc3c4ccccc4nc4ccccc34)cc2)CC1,732 nM
15,CC1=C(CC(=O)c2cccc([N+](=O)[O-])c2)C(=O)c2ccccc2C1=O,902 nM

# Test system: Plasmodium falciparum
# Test: MMV: Measure of pLDH activity as indication of parasite viability. Gametocytogenesis of 3D7 Plasmodium falciparum strain was induced in vitro and asexual parasites were depleted with N-acetylglucosamine. Gametocytes were treated with dihydroartemisinin, epoxomicin, methylene blue, primaquine, puromycin or chloroquine in 96-well plates and the pLDH activity was evaluated using a modified Makler protocol. Mosquito infectivity was measured by the standard membrane feeding assay.
# Format: functional
# Parameters: concentration or dose not given beside the values
row,SMILES,Growth Inhibition
1,Cc1cccc(-n2ncc3c(O)nc(-n4nc(C)cc4NC(=O)c4cc5ccccc5o4)nc32)c1,60.253%
2,COc1ccccc1NC1=C(N2CCCCC2)C(=O)c2ccccc2C1=O,50.0502%
3,O=C(NCCCN1CCC(N2CCCCC2)CC1)C1=Cc2cc(Br)ccc2OC1,57.2548%
4,Oc1c(C(Nc2ccccn2)c2cccc(Oc3ccccc3)c2)ccc2cccnc12 (stereo not drawn),50.44%
5,Oc1c(CN2CCN(c3ccccc3F)CC2)cc(Br)c2cccnc12,75.8386%
6,Cc1sc2ncnc(Sc3nc4ccccc4[nH]3)c2c1C,79.0368%
7,CCCc1c(C)nc2ccc(Br)cc2c1O,51.0245%
8,CCOc1ccc(CN2CCN(CC(O)COc3ccc(OCC(O)CN4CCN(Cc5ccc(OCC)cc5)CC4)cc3)CC2)cc1 (stereo not drawn),89.2205%
9,COC(=O)c1ccc(C2C3=C(O)CC(c4ccc(F)cc4)CC3=Nc3ccccc3N2C(=O)c2ccccc2)cc1 (stereo not drawn),56.5126%
10,O=C(NC1CCN(Cc2ccccc2)CC1)c1cc(C(=O)NC2CCN(Cc3ccccc3)CC2)cc(C(=O)NC2CCN(Cc3ccccc3)CC2)c1,82.7495%
11,CN(C)c1ccc(C(O)(c2ccc(N(C)C)cc2)c2ccc(N(C)C)cc2)cc1 [METHYLROSANILINE],76.3425%
12,Cc1ccc2cc3c(N)c4c(C)ccc(C)c4nc3nc2c1,80.372%
13,CCN(CC)CCn1c(=N)n(CC(O)c2ccc(Cl)c(Cl)c2)c2ccccc21.Cl (stereo not drawn),75.2902%
14,CN1CCN(c2ccc(Nc3c4ccccc4nc4ccccc34)cc2)CC1,62.7432%
15,CC1=C(CC(=O)c2cccc([N+](=O)[O-])c2)C(=O)c2ccccc2C1=O,70.075%
16,Br.CCN(CC)S(=O)(=O)c1ccc(-c2csc(Nc3ccc(C)c(C)c3)n2)cc1,9.3564%
17,COc1ccc2c(c1)OC(O)(C(F)(F)C(F)(F)F)CC2=O (stereo not drawn),11.5806%
18,O=c1nc(C=Cc2ccc(Br)cc2)oc2ccccc12,11.7922%
19,COc1ccc(C(C)=O)cc1N1C(=O)C2C(C1=O)C1(c3ccccc3)C(=O)C2(c2ccccc2)C(c2ccc(C)cc2)=C1c1ccc(C)cc1 (stereo not drawn),-2.6232%
20,COc1ccc2c(c1)C1(Nc3ccccc3-c3nc4ccccc4n31)C(=O)N2 (stereo not drawn),23.3334%
21,Cn1c(=O)c2cc(C(=O)NCCCN3CCCCCC3)sc2c2ccccc21,15.852%
22,Cc1ccc(-c2cc3nc4c(c(O)n3n2)CCCC4)cc1,9.811%
23,CC1CN(C(=O)c2sc3ccccc3c2Cl)CC(C)O1 (stereo not drawn),1.741%
24,COc1ccc(CN2CCN(Cc3ccccc3)CC2)c(O)c1,26.2585%
25,O=C(Nc1ccc(Br)cc1)Nc1cccc(Cl)c1,8.8754%
26,CCCn1c(=N)c(C(=O)NC2CCCCC2)cc2c(=O)n3cccc(C)c3nc21,2.4486%

row,SMILES,Growth Inhibition
1,CCCCCCc1cc2cc(-c3csc(C=Cc4ccccc4)n3)c(=O)oc2cc1O,20.6338%
2,O=C(NC1CCCCC1)C(c1cccs1)N(CCc1ccccc1)C(=O)c1ccco1 (stereo not drawn),7.269%
3,O=C(Nc1ccc(-c2nc3cc(NC(=O)c4ccc(Cl)cc4)ccc3[nH]2)cc1)c1ccc(Cl)cc1,18.844%
4,COc1ccc(C(=O)Nc2ccc3nc(N4CCCCC4)cc(C)c3c2)cc1OC,11.0486%
5,CCN(CC)c1cc(C)c2cc(NC(=O)c3cccc(OC)c3)ccc2n1,11.335%
6,CN(C)c1ccc(N2C(N)=NC(N)=NC2(C)C)cc1,5.041%
7,Cc1ccc(S(=O)(=O)c2c(COC(=O)c3cccc(C)c3)c(-c3ccccc3)nn2C)cc1,4.058%
8,COc1ccc(C(=O)C2CC2c2ccc(Cl)cc2)cc1 (stereo not drawn),8.002%
9,CC(C)=CCN1CCC(C(=O)Nc2ccc(-c3nc4ccccc4[nH]3)cc2)CC1,16.6684%
10,CCOc1c(Cl)cc(CNCC(O)c2ccccc2)cc1OC (stereo not drawn),20.5848%
11,CCCc1c(CC)c(=N)c2ccccc2n1C,4.7322%
12,CCOC(=O)c1cnc2c(C)cc(C)cc2c1Nc1ccc(OC)c(OC)c1,-11.2088%
13,CC(Oc1ccc(NC(=O)c2cccs2)cc1)C(=O)c1ccc(Cl)cc1 (stereo not drawn),16.818%
14,CCOc1ccccc1CN1CCc2nc3cc(C(C)(C)C)nn3c(O)c2C1,8.4768%
15,COc1cc(OC)c(N(C)C(=O)c2cc3c(s2)-c2ccccc2S(=O)(=O)C3)cc1Cl,6.301%
16,O=C1c2ccccc2-c2nnc(-c3ccc(Br)cc3)cc21,29.9528%
17,Cc1cc(=O)oc2c1ccc1oc(C(=O)c3ccccc3)c(C)c12,19.4%
18,O=C(Cc1ccccc1)NC(c1ccc(Cl)cc1)c1c(O)ccc2ccccc12 (stereo not drawn),13.3694%
19,CCN(CC)CCNc1ccnc2cc(Cl)ccc12,9.9324%
20,CCOc1ccc(Nc2c3ccccc3nc3ccccc23)cc1.Cl,2.291%
21,O=C(O)C(=O)O.Oc1ccccc1CN1CCN(C(c2ccccc2)c2ccccc2)CC1,27.3522%
22,CCOc1ccc(Nc2ccnc3cc(Cl)ccc23)cc1,2.6298%
23,CC1CC(C)CN(C(=O)c2ccc(Cl)cc2Cl)C1 (stereo not drawn),-2.8594%
24,FC(F)(F)c1cccc(Nc2nc(-c3ccccc3)nc3ncccc23)c1,9.5538%
25,O=C(Nc1ccccc1O)c1ccc(Oc2cccc(C(=O)Nc3ccccc3O)c2)cc1,23.386%
26,O=C(Nc1ccsc1C(=O)NC1CCCCC1)c1ccc(F)cc1,7.047%

row,SMILES,Growth Inhibition
1,Cc1c(C)n(Cc2ccc(F)cc2)c2ccc(C(=O)NCc3ccco3)cc12,19.2814%
2,Clc1ccc2[nH]c3c(NCCCN4CCOCC4)ncnc3c2c1,9.617%
3,CCOC(=O)c1c(C)n(-c2ccccc2)c2ccc(OC(=O)c3cc(OC)c(OC)c(OC)c3)cc12,-1.486%
4,COc1cc(-c2nc(-c3ccccc3)c(-c3ccccc3)[nH]2)cc(OC)c1O,13.9122%
5,O=c1c2c([nH]c3ccccc13)CCCC2,19.1396%
6,CCCCOc1ccc(C(=O)Nc2cc(C)on2)cc1,-2.1422%
7,CC(C)(C)C(=O)Nc1ccc(C(=O)Nc2cccc(-c3nc4ccccc4[nH]3)c2)cc1,13.3516%
8,COc1ccc(Nc2cc(C)nc(NCc3ccccc3)n2)cc1,8.4962%
9,CCn1c(CN2CCN(Cc3ccccc3)CC2)nc2cc(NC(=O)c3cccs3)ccc21,17.812%
10,CCOc1ccc(-c2nc(NC(=O)c3cccc(S(C)(=O)=O)c3)sc2C)cc1,10.5858%
11,COc1ccc(CCN2CCC(CN(C)Cc3cnn(-c4ccccc4)c3)CC2)cc1,34.868%
12,O=C(NC1CCCC1)c1ccc(N2CCC(NCc3cccc(C(F)(F)F)c3)CC2)cc1,6.6358%
13,CCN1CCCC1CNc1[nH]cnc2c3cc(Cl)ccc3nc1-2 (stereo not drawn),8.5536%
14,CCCCCCn1c(=N)n(CC(O)COc2cccc(C)c2)c2ccccc21.Cl (stereo not drawn),34.1668%
15,Cc1ccc(C(=O)c2oc3ccc4c(C)cc(=O)oc4c3c2C)cc1,1.1304%
16,CCc1ccc(CNCC(O)c2ccccc2)cc1.Cl (stereo not drawn),26.7%
17,CCOC(=O)c1cn(CC)c2cc(N3CCCCC3)c(F)cc2c1=O,27.8444%
18,COc1cccc(-c2nn(C)c3sc(C(=O)NCCN4CCN(c5ccccc5F)CC4)cc23)c1,20.4084%
19,COc1ccc(-c2nonc2NC(=O)c2cccc(C)c2)cc1OC,3.7758%
20,Cc1cc(NCCN2CCCCC2)c2ccc3ccccc3c2n1,17.8584%
21,Cc1cc(C)cc(Nc2cc(C)nc3nc(C(F)(F)F)nn23)c1,-10.2568%
22,CC(C)(C)c1ccc2c(c1)CN(Cc1ccc(Cl)cc1)CO2,36.3995%
23,O=C(NNc1cc(N2CCCC2)nc(N2CCCC2)n1)c1ccccc1,2.419%
24,CC(C)(C)c1ccc(C2CC3=Nc4ccccc4N(C(=O)c4ccccc4Cl)C(c4ccc(F)cc4)C3=C(O)C2)cc1 (stereo not drawn),12.8628%
25,CCCCCCC(O)(c1ccc(F)cc1)C(CN1CCOCC1)c1ccccc1.Cl (stereo not drawn),-0.4664%
26,OC1=C2C(=Nc3ccccc3SC2c2ccccc2)c2ccccc21 (stereo not drawn),34.196%
